Results from patent US20230085307A1, “PYRIDAZINONE COMPOUND AND HERBICIDE” (NISSAN CHEMICAL CORPORATION, priority 2019, published 2023).

How the values were obtained:
late watergrass = test: Test Example 1: herbicidal activity, application before weed generation under submerged conditions (Table 16, symbol A); assay type: in vivo, late watergrass (Echinochloa oryzicola); conditions: amount of applied herbicide 320 g/ha
Procedure, shortened: (§1)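 Submerged Wagner pots (alluvial soil, 4 cm water) sown with weed seeds and planted with 2.5-leaf rice seedlings; emulsifiable concentrate diluted in water applied to water surface on sowing day. Held in greenhouse at 25-30 °C; injury scored 0-5 by herbicidal rate after three weeks.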

wild oat [1] = test: Test Example 5: herbicidal effect by foliage application, plastic box (Table 20, symbol I); assay type: in vivo, wild oat (Avena fatua); conditions: 320 g/ha, foliage application after 14-day growth, evaluated three weeks after application
Procedure, shortened: (§2)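 Post-emergence foliar test in sterilized diluvial soil. Compound applied as water-diluted emulsion at a predetermined rate to 14-day-old plants; evaluation at three weeks.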

oval-leafed pondweed = test: Test Example 1: herbicidal activity, application before weed generation under submerged conditions (Table 16, symbol C); assay type: in vivo, oval-leafed pondweed (Monochoria vaginalis); conditions: amount of applied herbicide 320 g/ha
Procedure, shortened: as §1

Italian ryegrass [2] = test: Test Example 4: herbicidal effect by soil treatment (Table 19, symbol K); assay type: in vivo, Italian ryegrass (Lolium multiflorum); conditions: amount of applied herbicide 320 g/ha
Procedure, shortened: (§3)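 Scoring uses the grading scale of an earlier test, three weeks post-application. Treatment consists of spraying a diluted emulsion formulation across the surface of sterilized diluvial soil in which seeds are buried near 1.5 cm deep; boxes are kept in a greenhouse between 25° C. and 30° C.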

lambsquarters [3] = test: Test Example 5: herbicidal effect by foliage application, plastic box (Table 20, symbol O); assay type: in vivo, lambsquarters (Chenopodium album); conditions: 320 g/ha, foliage application after 14-day growth, evaluated three weeks after application
Procedure, shortened: as §2

windgrass [4] = test: Test Example 5: herbicidal effect by foliage application, plastic box (Table 20, symbol L); assay type: in vivo, windgrass (Apera spica-venti); conditions: 320 g/ha, foliage application after 14-day growth, evaluated three weeks after application
Procedure, shortened: as §2

persian speedwell [5] = test: Test Example 4: herbicidal effect by soil treatment (Table 19, symbol R); assay type: in vivo, Persian speedwell (Veronica persica); conditions: amount of applied herbicide 320 g/ha
Procedure, shortened: as §3

barnyard grass [6] = test: Test Example 4: herbicidal effect by soil treatment (Table 19, symbol H); assay type: in vivo, barnyard grass (Echinochloa crus-galli); conditions: amount of applied herbicide 320 g/ha
Procedure, shortened: as §3

blackgrass [7] = test: Test Example 5: herbicidal effect by foliage application, plastic box (Table 20, symbol J); assay type: in vivo, blackgrass (Alopecurus myosuroides); conditions: 320 g/ha, foliage application after 14-day growth, evaluated three weeks after application
Procedure, shortened: as §2

blackgrass [8] = test: Test Example 4: herbicidal effect by soil treatment (Table 19, symbol J); assay type: in vivo, blackgrass (Alopecurus myosuroides); conditions: amount of applied herbicide 320 g/ha
Procedure, shortened: as §3

chickweed [9] = test: Test Example 5: herbicidal effect by foliage application, plastic box (Table 20, symbol P); assay type: in vivo, common chickweed (Stellaria media); conditions: 320 g/ha, foliage application after 14-day growth, evaluated three weeks after application
Procedure, shortened: as §2

velvetleaf [10] = test: Test Example 4: herbicidal effect by soil treatment (Table 19, symbol M); assay type: in vivo, velvetleaf (Abutilon theophrasti); conditions: amount of applied herbicide 320 g/ha
Procedure, shortened: as §3

southern crabgrass [11] = test: Test Example 5: herbicidal effect by foliage application, plastic box (Table 20, symbol F); assay type: in vivo, southern crabgrass (Digitaria ciliaris); conditions: 320 g/ha, foliage application after 14-day growth, evaluated three weeks after application
Procedure, shortened: as §2

barnyard grass [12] = test: Test Example 5: herbicidal effect by foliage application, plastic box (Table 20, symbol H); assay type: in vivo, barnyard grass (Echinochloa crus-galli); conditions: 320 g/ha, foliage application after 14-day growth, evaluated three weeks after application
Procedure, shortened: as §2

redroot pigweed [13] = test: Test Example 5: herbicidal effect by foliage application, plastic box (Table 20, symbol N); assay type: in vivo, redroot pigweed (Amaranthus retroflexus); conditions: 320 g/ha, foliage application after 14-day growth, evaluated three weeks after application
Procedure, shortened: as §2

Italian ryegrass [14] = test: Test Example 5: herbicidal effect by foliage application, plastic box (Table 20, symbol K); assay type: in vivo, Italian ryegrass (Lolium multiflorum); conditions: 320 g/ha, foliage application after 14-day growth, evaluated three weeks after application
Procedure, shortened: as §2

persian speedwell [15] = test: Test Example 5: herbicidal effect by foliage application, plastic box (Table 20, symbol R); assay type: in vivo, Persian speedwell (Veronica persica); conditions: 320 g/ha, foliage application after 14-day growth, evaluated three weeks after application
Procedure, shortened: as §2

windgrass [16] = test: Test Example 4: herbicidal effect by soil treatment (Table 19, symbol L); assay type: in vivo, windgrass (Apera spica-venti); conditions: amount of applied herbicide 320 g/ha
Procedure, shortened: as §3

barnyard grass [17] = test: Test Example 3: herbicidal effect by foliage application, Wagner pot (Table 18, symbol H); assay type: in vivo, barnyard grass (Echinochloa crus-galli); conditions: 320 g/ha
Procedure, shortened: (§4)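 Plants were sown in alluvial soil held under 0.1–0.5 cm standing water and grown 14 days in a greenhouse at 25–30 °C. An emulsifiable formulation, water-diluted to the set dose, was then sprayed onto the foliage, and effects were scored three weeks later using previously defined criteria.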

velvetleaf [18] = test: Test Example 5: herbicidal effect by foliage application, plastic box (Table 20, symbol M); assay type: in vivo, velvetleaf (Abutilon theophrasti); conditions: 320 g/ha, foliage application after 14-day growth, evaluated three weeks after application
Procedure, shortened: as §2

Japanese bulrush = test: Test Example 1: herbicidal activity, application before weed generation under submerged conditions (Table 16, symbol B); assay type: in vivo, Japanese bulrush (Schoenoplectus juncoides); conditions: amount of applied herbicide 320 g/ha
Procedure, shortened: as §1

chickweed [19] = test: Test Example 4: herbicidal effect by soil treatment (Table 19, symbol P); assay type: in vivo, common chickweed (Stellaria media); conditions: amount of applied herbicide 320 g/ha
Procedure, shortened: as §3

green foxtail [20] = test: Test Example 5: herbicidal effect by foliage application, plastic box (Table 20, symbol G); assay type: in vivo, green foxtail (Setaria viridis); conditions: 320 g/ha, foliage application after 14-day growth, evaluated three weeks after application
Procedure, shortened: as §2

wild oat [21] = test: Test Example 4: herbicidal effect by soil treatment (Table 19, symbol I); assay type: in vivo, wild oat (Avena fatua); conditions: amount of applied herbicide 320 g/ha
Procedure, shortened: as §3

Chinese sprangletop = test: Test Example 3: herbicidal effect by foliage application, Wagner pot (Table 18, symbol D); assay type: in vivo, chinese sprangletop (Leptochloa chinensis); conditions: 320 g/ha
Procedure, shortened: as §4

redroot pigweed [22] = test: Test Example 4: herbicidal effect by soil treatment (Table 19, symbol N); assay type: in vivo, redroot pigweed (Amaranthus retroflexus); conditions: amount of applied herbicide 320 g/ha
Procedure, shortened: as §3

rice flat sedge = test: Test Example 3: herbicidal effect by foliage application, Wagner pot (Table 18, symbol E); assay type: in vivo, rice flat sedge (Cyperus iria); conditions: 320 g/ha
Procedure, shortened: as §4

southern crabgrass [23] = test: Test Example 4: herbicidal effect by soil treatment (Table 19, symbol F); assay type: in vivo, southern crabgrass (Digitaria ciliaris); conditions: amount of applied herbicide 320 g/ha
Procedure, shortened: as §3

green foxtail [24] = test: Test Example 4: herbicidal effect by soil treatment (Table 19, symbol G); assay type: in vivo, green foxtail (Setaria viridis); conditions: amount of applied herbicide 320 g/ha
Procedure, shortened: as §3

lambsquarters [25] = test: Test Example 4: herbicidal effect by soil treatment (Table 19, symbol O); assay type: in vivo, lambsquarters (Chenopodium album); conditions: amount of applied herbicide 320 g/ha
Procedure, shortened: as §3

COc1ccc2c(-c3c(O)c(C)nn(C)c3=O)c(-c3ccc(OC(F)F)cc3)sc2c1 [3-159]
Herbicidal effect, A: late watergrass (late watergrass): 0 (Herbicidal rate of 5% or less (almost no effect)) | herbicidal effect on I: wild oat (evaluation grade 0-5) (wild oat [1]): 0 (Herbicidal rate of 5% or less (almost no effect)) | Herbicidal effect, C: oval-leafed pondweed (oval-leafed pondweed): 3 (Herbicidal rate of 40% or more and less than 70%) | Herbicidal effect by soil treatment, K: Italian ryegrass (Italian ryegrass [2]): 0 (Herbicidal rate of 5% or less (almost no effect)) | herbicidal effect on O: lambsquarters (evaluation grade 0-5) (lambsquarters [3]): 5 (Herbicidal rate of 90% or more (almost completely withered)) | herbicidal effect on L: windgrass (evaluation grade 0-5) (windgrass [4]): 0 (Herbicidal rate of 5% or less (almost no effect)) | Herbicidal effect by soil treatment, R: persian speedwell (persian speedwell [5]): 3 (Herbicidal rate of 40% or more and less than 70%) | Herbicidal effect by soil treatment, H: barnyard grass (barnyard grass [6]): 0 (Herbicidal rate of 5% or less (almost no effect)) | herbicidal effect on J: blackgrass (evaluation grade 0-5) (blackgrass [7]): 3 (Herbicidal rate of 40% or more and less than 70%) | Herbicidal effect by soil treatment, J: blackgrass (blackgrass [8]): 0 (Herbicidal rate of 5% or less (almost no effect)) | herbicidal effect on P: chickweed (evaluation grade 0-5) (chickweed [9]): 5 (Herbicidal rate of 90% or more (almost completely withered)) | Herbicidal effect by soil treatment, M: velvetleaf (velvetleaf [10]): 1 (Herbicidal rate of 5% or more and less than 20%) | herbicidal effect on F: southern crabgrass (evaluation grade 0-5) (southern crabgrass [11]): 0 (Herbicidal rate of 5% or less (almost no effect)) | herbicidal effect on H: barnyard grass (evaluation grade 0-5) (barnyard grass [12]): 0 (Herbicidal rate of 5% or less (almost no effect)) | herbicidal effect on N: redroot pigweed (evaluation grade 0-5) (redroot pigweed [13]): 5 (Herbicidal rate of 90% or more (almost completely withered)) | herbicidal effect on K: Italian ryegrass (evaluation grade 0-5) (Italian ryegrass [14]): 4 (Herbicidal rate of 70% or more and less than 90%) | herbicidal effect on R: persian speedwell (evaluation grade 0-5) (persian speedwell [15]): 5 (Herbicidal rate of 90% or more (almost completely withered)) | Herbicidal effect by soil treatment, L: windgrass (windgrass [16]): 0 (Herbicidal rate of 5% or less (almost no effect)) | herbicidal effect on barnyard grass (H) (barnyard grass [17]): 2 (Herbicidal rate of 20% or more and less than 40%) | herbicidal effect on M: velvetleaf (evaluation grade 0-5) (velvetleaf [18]): 4 (Herbicidal rate of 70% or more and less than 90%) | Herbicidal effect, B: Japanese bulrush (Japanese bulrush): 3 (Herbicidal rate of 40% or more and less than 70%) | Herbicidal effect by soil treatment, P: chickweed (chickweed [19]): 0 (Herbicidal rate of 5% or less (almost no effect)) | herbicidal effect on G: green foxtail (evaluation grade 0-5) (green foxtail [20]): 0 (Herbicidal rate of 5% or less (almost no effect)) | Herbicidal effect by soil treatment, I: wild oat (wild oat [21]): 0 (Herbicidal rate of 5% or less (almost no effect)) | herbicidal effect on Chinese sprangletop (D) (Chinese sprangletop): 0 (Herbicidal rate of 5% or less (almost no effect)) | Herbicidal effect by soil treatment, N: redroot pigweed (redroot pigweed [22]): 4 (Herbicidal rate of 70% or more and less than 90%) | herbicidal effect on rice flat sedge (E) (rice flat sedge): 3 (Herbicidal rate of 40% or more and less than 70%) | Herbicidal effect by soil treatment, F: southern crabgrass (southern crabgrass [23]): 0 (Herbicidal rate of 5% or less (almost no effect)) | Herbicidal effect by soil treatment, G: green foxtail (green foxtail [24]): 0 (Herbicidal rate of 5% or less (almost no effect)) | Herbicidal effect by soil treatment, O: lambsquarters (lambsquarters [25]): 4 (Herbicidal rate of 70% or more and less than 90%)
